Assay: xn = mol fraction of the nth substance listed
Settings: 100 kPa, Liquid; for speed of sound: Frequency=3 MHz, Single path-length method; for mass density: Vibrating tube method

CCCCOCCOCCO [3,6-dioxa-1-decanol] + CCCCCCCCO
Settings | mass density, 293.15 K [kg/m3] | mass density, 298.15 K [kg/m3] | mass density, 303.15 K [kg/m3] | mass density, 308.15 K [kg/m3] | mass density, 313.15 K [kg/m3] | speed of sound, 293.15 K [m/s] | speed of sound, 298.15 K [m/s] | speed of sound, 303.15 K [m/s] | speed of sound, 308.15 K [m/s] | speed of sound, 313.15 K [m/s]
x1 = 0.0518 | 832.225 | 828.746 | 825.244 | 821.725 | 818.179 | 1364.4 | 1347.4 | 1330.7 | 1313.9 | 1297.4
x1 = 0.1019 | 838.886 | 835.371 | 831.834 | 828.281 | 824.7 | 1363.4 | 1346.4 | 1329.7 | 1313 | 1296.4
x1 = 0.1605 | 846.645 | 843.087 | 839.508 | 835.909 | 832.289 | 1362.8 | 1345.8 | 1329.1 | 1312.5 | 1296
x1 = 0.1994 | 851.754 | 848.167 | 844.558 | 840.932 | 837.284 | 1362.4 | 1345.5 | 1328.8 | 1312.1 | 1295.6
x1 = 0.2503 | 858.438 | 854.812 | 851.169 | 847.507 | 843.826 | 1362.1 | 1345.3 | 1328.5 | 1311.9 | 1295.5
x1 = 0.303 | 865.322 | 861.66 | 857.975 | 854.271 | 850.554 | 1362 | 1345.2 | 1328.5 | 1311.9 | 1295.4
x1 = 0.4013 | 878.059 | 874.317 | 870.565 | 866.793 | 863.012 | 1362.5 | 1345.7 | 1329 | 1312.4 | 1296
x1 = 0.4999 | 890.695 | 886.882 | 883.058 | 879.218 | 875.365 | 1363.2 | 1346.4 | 1329.7 | 1313.1 | 1296.7
x1 = 0.5918 | 902.338 | 898.456 | 894.568 | 890.661 | 886.747 | 1364.5 | 1347.6 | 1330.9 | 1314.3 | 1297.8
x1 = 0.7043 | 916.351 | 912.393 | 908.423 | 904.44 | 900.454 | 1366.7 | 1349.8 | 1333.1 | 1316.5 | 1299.9
x1 = 0.8085 | 929.131 | 925.094 | 921.053 | 916.997 | 912.939 | 1369.4 | 1352.4 | 1335.7 | 1319 | 1302.5
x1 = 0.848 | 933.965 | 929.901 | 925.834 | 921.75 | 917.662 | 1370.8 | 1353.8 | 1336.8 | 1320.1 | 1303.6
x1 = 0.901 | 940.359 | 936.257 | 932.151 | 928.029 | 923.906 | 1373 | 1356 | 1339.2 | 1322.4 | 1305.8
x1 = 0.9501 | 946.262 | 942.124 | 937.981 | 933.818 | 929.657 | 1374.3 | 1357.3 | 1340.4 | 1323.7 | 1307
x1 = 1 | 952.288 | 948.1 | 943.909 | 939.704 | 935.503 | 1378.2 | 1361.3 | 1344.5 | 1326.4 | 1307.7

CCCCOCCOCCO [3,6-dioxa-1-decanol] + CCCCCCO
Settings | mass density, 293.15 K [kg/m3] | mass density, 298.15 K [kg/m3] | mass density, 303.15 K [kg/m3] | mass density, 308.15 K [kg/m3] | mass density, 313.15 K [kg/m3] | speed of sound, 293.15 K [m/s] | speed of sound, 298.15 K [m/s] | speed of sound, 303.15 K [m/s] | speed of sound, 308.15 K [m/s] | speed of sound, 313.15 K [m/s]
x1 = 0.0612 | 830.032 | 826.42 | 822.781 | 819.109 | 815.428 | 1323.2 | 1306.7 | 1289.7 | 1273.2 | 1256.6
x1 = 0.1016 | 836.858 | 833.209 | 829.539 | 825.839 | 822.126 | 1325.7 | 1309 | 1292.1 | 1275.4 | 1259.1
x1 = 0.1593 | 846.323 | 842.636 | 838.928 | 835.192 | 831.439 | 1329.1 | 1312.2 | 1295.4 | 1278.6 | 1262.3
x1 = 0.2053 | 853.619 | 849.892 | 846.155 | 842.384 | 838.617 | 1331.8 | 1314.9 | 1298.2 | 1281.3 | 1265
x1 = 0.251 | 860.647 | 856.892 | 853.123 | 849.323 | 845.516 | 1334.4 | 1317.5 | 1301 | 1283.8 | 1267.6
x1 = 0.3095 | 869.401 | 865.605 | 861.792 | 857.954 | 854.105 | 1337.5 | 1320.9 | 1304.2 | 1287.1 | 1271.2
x1 = 0.4054 | 883.079 | 879.224 | 875.359 | 871.465 | 867.564 | 1343.2 | 1326.3 | 1309.8 | 1292.4 | 1276.4
x1 = 0.5021 | 896.077 | 892.169 | 888.244 | 884.294 | 880.34 | 1348.5 | 1331.7 | 1314.9 | 1297.7 | 1281.6
x1 = 0.6049 | 909.164 | 905.192 | 901.21 | 897.205 | 893.199 | 1354.2 | 1337.5 | 1320.8 | 1303.3 | 1287.3
x1 = 0.6982 | 920.378 | 916.352 | 912.316 | 908.259 | 904.202 | 1359.8 | 1342.7 | 1326.1 | 1308.4 | 1292.7
x1 = 0.801 | 931.924 | 927.842 | 923.754 | 919.65 | 915.548 | 1365.5 | 1348.7 | 1331.8 | 1314.2 | 1298.2
x1 = 0.8313 | 935.198 | 931.096 | 926.99 | 922.874 | 918.76 | 1367.2 | 1350.3 | 1333.3 | 1315.8 | 1299.6
x1 = 0.9042 | 942.783 | 938.65 | 934.516 | 930.365 | 926.213 | 1372.5 | 1354.8 | 1338.3 | 1320.2 | 1304.8
x1 = 1 | 952.288 | 948.1 | 943.909 | 939.704 | 935.503 | 1378.2 | 1361.3 | 1344.5 | 1326.4 | 1307.7
